According to patent US9193708B2, “Non-flushing niacin analogues, and methods of use thereof” (Trustees of Tufts College, priority 2006, dated 2015):

Legend:
THP-1 macrophages = assay: PGD2 release by THP-1 macrophages, proxy for flush inducing activity; format: cell-based; settings: compared with niacin
Procedure: THP-1 cells were grown in RPMI complete media • 2×10^6 cells/well in 24 well flask were seeded in serum free media containing […] of PMA. Cells were allowed to differentiate into macrophages for 12 hours • The media was replaced with complete RPMI media and incubation continued for 5 hours • After incubation, media was aspirated and cells were treated with niacin and niacin analogs in 1 mL of serum free RPMI media. • Incubated for 30 min. […] of media was collected, PGD2 secreted was derivitized into stable MOX derivative. • PGD2 in the sample was assayed by using PGD2 assay kit from Cayman chemicals. Incorporation By Reference

Hep-G2 cells = assay: HDL uptake by Hep-G2 cells (125I-labelled HDL), proxy for HDL-raising activity; format: cell-based; settings: compared with niacin
Procedure: • Split HepG2 cells in 24 well plates 2˜3 days prior to niacin treatment, 0.5 mL complete DMEM media is added per well • Cells were pre-incubated with niacin (1 mM) for 24˜48 h • Wash HepG2 cells 3 times with PBS • Incubate HepG2 cells in […] medium C(DMEM containing 5 mg/mL fatty acid free BSA), containing ^125I-labelled HDL ([…] with specificity ofo 300-500 cpm/ng HDL protein. For 16 h • Aspirate the media and wash the cells with 0.5 mL of 0.1 mg/mL BSA-PBS twice, and with PBS twice • Cells were digested in […] of 1 N NaOH at room temperature overnight • […] of cell lysate was used for gamma-counting • […] of cell lysate was used for protein assay by BCA method • HDL uptake activity is expressed as “cpm of ^125I-HDL uptake/mg of cell protein.

[1] = humans, daily oral doses of 2-3 g; cited from earlier work

| Compound | induction of PGD2 release / flush inducing activity relative to niacin (THP-1 macrophages) | reduction of HDL uptake / HDL-raising activity relative to niacin (Hep-G2 cells) | effect on Lp(a) [1] |
| --- | --- | --- | --- |
| O=C(O)C/C=C/c1cccnc1 [Compound 2035, 4-pyridin-3-yl-but-3-enoic acid] | very much less ability to induce PDG2 release | essentially as well as niacin | – |
| O=C(O)c1cccnc1 [niacin] | – | – | reduce Lp(a) |
